# Measurements as given in the supplement of paper PMC4862054.
# Experiments:
# HDQ-P1 [1] = conditions: 72 h
# Procedure: (§1)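 Drug sensitivity and resistance testing (DSRT) of breast cancer cell lines in 384-well plates, 5 concentrations in 10-fold dilutions over a compound-specific 10,000-fold range. After 72 h, cytotoxicity was read by CellTox Green fluorescence and viability by CellTiter-Glo luminescence (multiplexed), normalised to DMSO and benzethonium chloride controls. EC50 is the inflection point of the fitted dose-response curve (bottom asymptote free, so it can be relative for partial curves) and is censored at the highest tested concentration. Rows with DSS 0 (no meaningful response) were excluded.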
# Hs578T [2] = conditions: 72 h
# Procedure: as §1
# MDA-MB-468 [3] = conditions: 72 h
# Procedure: as §1
# BT-474 [4] = conditions: 72 h
# Outline: (§2)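 Seeding of breast cancer cell lines (20 µl suspension) was done into 384-well plates pre-loaded with compound at 5 concentrations, 10-fold apart, covering a compound-specific 10,000-fold range. The plates were incubated for 72 h, read for CellTox Green fluorescence (485/520 nm), and then read for CellTiter-Glo luminescence after 10 min at room temperature. Every plate was normalised to 0.1 % DMSO and a positive kill control. Curve fitting gave the EC50, censored at the top concentration.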
# CAL-148 [5] = conditions: 72 h
# Outline: as §2
# MDA-MB-231 [6] = conditions: 72 h
# Outline: as §2
# MFM-223 [7] = conditions: 72 h
# Outline: as §2
# HDQ-P1 [8] = conditions: 72 h; remark: listed apart in the source
# Outline: as §2
# HCC1143 = conditions: 72 h
# Outline: as §2
# Hs578T [9] = conditions: 72 h; remark: listed apart in the source
# Outline: as §2
# MCF-10A = conditions: 72 h
# Outline: as §2
# MDA-MB-436 = conditions: 72 h
# Outline: as §2
# SK-BR-3 [10] = conditions: 72 h
# Outline: as §2
# MDA-MB-468 [11] = conditions: 72 h; remark: listed apart in the source
# Outline: as §2
# HCC1937 [12] = conditions: 72 h
# Outline: as §2
# CAL-85-1 [13] = conditions: 72 h
# Outline: as §2
# BT-549 = conditions: 72 h
# Outline: as §2
# HCC1599 = conditions: 72 h
# Outline: as §2
# CAL-120 [14] = conditions: 72 h
# Outline: as §2
# CAL-51 = conditions: 72 h
# Outline: as §2
# DU-4475 = conditions: 72 h
# Outline: as §2
# CAL-120 [15] = test: normalised response (% of control), CellTiter-Glo; higher = more viable cells (100 = DMSO, 0 = benzethonium chloride kill control); conditions: incubation time: 72 h
# Outline: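 For each plate, 0.1 % DMSO was set to 100 and a positive kill control to 0. Breast cancer cell lines (20 µl suspension) were seeded into 384-well plates already holding compound at 5 concentrations in 10-fold steps over a 10,000-fold range chosen per compound, and incubated for 72 h. CellTox Green fluorescence at 485/520 nm was read before CellTiter-Glo luminescence, which followed 10 min at room temperature. Each value is the normalised signal at one concentration.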
# CAL-85-1 [16] = conditions: 72 h; remark: listed apart in the source
# Procedure: as §1
# SK-BR-3 [17] = conditions: 72 h; remark: listed apart in the source
# Outline: (§3)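 Each 384-well plate was pre-loaded with compound dissolved in 5 µl medium, received breast cancer cells in 20 µl suspension, and was incubated 72 h. A 2.5 µl addition of CellTiter-Blue for 2 h at 37 °C was followed by a fluorescence read at 560/590 nm. Data were normalised per plate to vehicle and a positive kill control and checked by Z'-factor. EC50 was fitted from the percent-inhibition dose-response curve, censored at the highest concentration, excluding rows with a drug sensitivity score of zero.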
# MDA-MB-453 [18] = conditions: 72 h
# Outline: as §3
# MDA-MB-453 [19] = conditions: 72 h; remark: listed apart in the source
# Outline: as §2
# MDA-MB-231 [20] = conditions: 72 h; remark: listed apart in the source
# Procedure: as §1
# BT-474 [21] = conditions: 72 h; remark: listed apart in the source
# Procedure: as §1
# CAL-148 [22] = conditions: 72 h; remark: listed apart in the source
# Procedure: as §1
# MFM-223 [23] = conditions: 72 h; remark: listed apart in the source
# Procedure: as §1
# HCC1937 [24] = conditions: 72 h; remark: listed apart in the source
# Outline: as §3
smiles,measurement,setting,value
Cn1cc(C[C@@H](N)C(=O)O)c2ccccc21 [1-methyl-D-tryptophan],"EC50, CellTox Green",HDQ-P1 [1],> 5000 nM
same,"EC50, CellTox Green",Hs578T [2],> 5000 nM
same,"EC50, CellTox Green",MDA-MB-468 [3],> 5000 nM
CC[C@H](CC#N)OC(=O)N[C@@H](C)c1cccc(NC(=O)Nc2ccc(-c3cnco3)c(OC)c2)c1 [AVN944],"EC50, CellTiter-Glo",BT-474 [4],699 nM
same,"EC50, CellTiter-Glo",CAL-148 [5],236 nM
same,"EC50, CellTiter-Glo",MDA-MB-231 [6],287 nM
same,"EC50, CellTiter-Glo",MFM-223 [7],859 nM
same,"EC50, CellTiter-Glo",HDQ-P1 [8],198 nM
same,"EC50, CellTiter-Glo",HCC1143,359 nM
same,"EC50, CellTiter-Glo",Hs578T [9],532 nM
same,"EC50, CellTiter-Glo",MCF-10A,176 nM
same,"EC50, CellTiter-Glo",MDA-MB-436,176 nM
same,"EC50, CellTiter-Glo",SK-BR-3 [10],491 nM
same,"EC50, CellTiter-Glo",MDA-MB-468 [11],85 nM
same,"EC50, CellTiter-Glo",HCC1937 [12],333 nM
same,"EC50, CellTiter-Glo",CAL-85-1 [13],174 nM
same,"EC50, CellTiter-Glo",BT-549,139 nM
same,"EC50, CellTiter-Glo",HCC1599,649 nM
same,"EC50, CellTiter-Glo",CAL-120 [14],376 nM
same,"EC50, CellTiter-Glo",CAL-51,196 nM
same,"EC50, CellTiter-Glo",DU-4475,465 nM
same,"EC50, CellTox Green",Hs578T [2],191 nM
Cc1c(N)nc([C@H](CC(N)=O)NC[C@H](N)C(N)=O)nc1C(=O)N[C@H](C(=O)N[C@H](C)[C@@H](O)[C@H](C)C(=O)N[C@H](C(=O)NCCc1nc(-c2nc(C(=O)NCCC[S+](C)C)cs2)cs1)[C@@H](C)O)[C@@H](OC1OC(CO)C(O)C(O)C1OC1OC(CO)C(O)C(OC(N)=O)C1O)c1cnc[nH]1 (stereo not given in full) [Bleomycin] (10000 nM),normalised response,CAL-120 [15],80.9%
Cc1cc2c(F)c(Oc3ncnn4cc(OC[C@@H](C)O)c(C)c34)ccc2[nH]1 [Brivanib],"EC50, CellTiter-Glo",CAL-51,176 nM
same,"EC50, CellTox Green",CAL-85-1 [16],> 1000 nM
Cc1cc2c(F)c(Oc3ncnn4cc(OC[C@@H](C)O)c(C)c34)ccc2[nH]1 [Brivanib] (1000 nM),normalised response,CAL-120 [15],112%
CCCCCOC(=O)Nc1nc(=O)n([C@@H]2O[C@H](C)[C@@H](O)[C@H]2O)cc1F [Capecitabine],"EC50, CellTiter-Blue viability",SK-BR-3 [17],9200 nM
same,"EC50, CellTiter-Blue viability",MDA-MB-453 [18],7520 nM
same,"EC50, CellTiter-Glo",MDA-MB-436,5970 nM
CCCCCOC(=O)Nc1nc(=O)n([C@@H]2O[C@H](C)[C@@H](O)[C@H]2O)cc1F [Capecitabine] (10000 nM),normalised response,CAL-120 [15],98.5%
CC(C)C[C@H](NC(=O)[C@H](CCc1ccccc1)NC(=O)CN1CCOCC1)C(=O)N[C@@H](Cc1ccccc1)C(=O)N[C@@H](CC(C)C)C(=O)[C@@]1(C)CO1 [Carfilzomib] (1000 nM),normalised response,CAL-120 [15],1.88%
Nc1nc(Cl)nc2c1ncn2[C@@H]1O[C@H](CO)[C@@H](O)[C@@H]1F [Clofarabine] (10000 nM),normalised response,CAL-120 [15],69.8%
CCN(CC)CCOc1ccc(C(=C(Cl)c2ccccc2)c2ccccc2)cc1 [Clomifene] (10000 nM),normalised response,CAL-120 [15],90.2%
C[C@@H]1C[C@H]2[C@@H]3CCC4=CC(=O)C=C[C@]4(C)[C@@]3(F)[C@@H](O)C[C@]2(C)[C@@]1(O)C(=O)CO [Dexamethasone],"EC50, CellTiter-Blue viability",MDA-MB-453 [18],15.7 nM
same,"EC50, CellTiter-Glo",MDA-MB-453 [19],379 nM
same,"EC50, CellTiter-Glo",CAL-120 [14],7.49 nM
C[C@@H]1C[C@H]2[C@@H]3CCC4=CC(=O)C=C[C@]4(C)[C@@]3(F)[C@@H](O)C[C@]2(C)[C@@]1(O)C(=O)CO [Dexamethasone] (10000 nM),normalised response,CAL-120 [15],70.3%
Cc1c(C(=O)Nc2ccc(N3C[C@@H](C)O[C@@H](C)C3)nc2)cccc1-c1ccc(OC(F)(F)F)cc1 [Erismodegib],"EC50, CellTiter-Glo",BT-474 [4],722 nM
same,"EC50, CellTiter-Glo",MDA-MB-436,636 nM
same,"EC50, CellTiter-Glo",MDA-MB-468 [11],6610 nM
same,"EC50, CellTiter-Glo",CAL-51,41 nM
same,"EC50, CellTox Green",MDA-MB-231 [20],> 10000 nM
CC(C)C(=O)Nc1ccc([N+](=O)[O-])c(C(F)(F)F)c1 [Flutamide],"EC50, CellTiter-Glo",CAL-51,> 10000 nM
CC(C)C(=O)Nc1ccc([N+](=O)[O-])c(C(F)(F)F)c1 [Flutamide] (10000 nM),normalised response,CAL-120 [15],104%
COc1cc2c(Oc3ccc(NC(=O)C4(C(=O)Nc5ccc(F)cc5)CC4)cc3F)ccnc2cc1OCCCN1CCOCC1 [Foretinib] (1000 nM),normalised response,CAL-120 [15],68%
CC(C)NC[C@@H](C(=O)N1CCN(c2ncnc3c2[C@H](C)C[C@H]3O)CC1)c1ccc(Cl)cc1 [GDC-0068],"EC50, CellTiter-Glo",BT-474 [4],> 10000 nM
same,"EC50, CellTiter-Glo",CAL-148 [5],177 nM
same,"EC50, CellTiter-Glo",MFM-223 [7],139 nM
same,"EC50, CellTiter-Glo",HDQ-P1 [8],271 nM
same,"EC50, CellTiter-Glo",HCC1143,1590 nM
same,"EC50, CellTiter-Glo",Hs578T [9],1150 nM
same,"EC50, CellTiter-Glo",MCF-10A,1150 nM
same,"EC50, CellTiter-Glo",MDA-MB-453 [19],783 nM
same,"EC50, CellTiter-Glo",MDA-MB-436,> 10000 nM
same,"EC50, CellTiter-Glo",SK-BR-3 [10],814 nM
same,"EC50, CellTiter-Glo",MDA-MB-468 [11],656 nM
same,"EC50, CellTiter-Glo",HCC1937 [12],2350 nM
same,"EC50, CellTiter-Glo",CAL-85-1 [13],6480 nM
same,"EC50, CellTiter-Glo",BT-549,600 nM
same,"EC50, CellTiter-Glo",CAL-120 [14],819 nM
same,"EC50, CellTiter-Glo",CAL-51,2780 nM
same,"EC50, CellTiter-Glo",DU-4475,2070 nM
same,"EC50, CellTox Green",BT-474 [21],5810 nM
same,"EC50, CellTox Green",CAL-148 [22],221 nM
same,"EC50, CellTox Green",MFM-223 [23],1330 nM
same,"EC50, CellTox Green",HDQ-P1 [1],> 10000 nM
same,"EC50, CellTox Green",MDA-MB-468 [3],2640 nM
NC(=O)NO [Hydroxyurea],"EC50, CellTiter-Blue viability",HCC1937 [24],13400 nM
same,"EC50, CellTiter-Glo",BT-549,14000 nM
same,"EC50, CellTiter-Glo",CAL-51,1290 nM
